Test results taken from patent US20090226952A1, “SCREENING METHOD FOR COMPOUNDS WITH A[…]” (Isis Innovation Limited, priority 2005, published 2009).
Entries after “also recorded” stand apart in the source; their conditions may differ.

How the values were obtained:
[1] = test system: in vitro hippocampal slices (Schaffer Collaterals, excitatory post-synaptic potentials); test: Electrophysiological field potential (EPSP) recordings in paired-pulse stimulated hippocampal slices; format: cell-based, rat; conditions: for time from peak to half peak activity, peak 2 (t3−t4), vs control: EPSP data; for paired-pulse facilitation in EPSP recordings, treatment vs control / EPSP peak 1 value vs control / EPSP peak 2 value vs control: morphine 10-100 μM, gabapentin 100-150 μM, thiopental 80-150 μM, propofol 10-50 μM; for EPSP peak 1 value vs control / EPSP peak 2 value vs control: paired t-test n=6
Procedure: (§1) In the study, collective synchronised neuronal activity, i.e. working neuronal assemblies^3, were recorded while monitoring in parallel the underlying synaptic electrical activity (FIG. 1a). Accordingly, the use of the voltage sensitive dye, Di-4-ANEPPS, was combined with standard electrophysiological field potential recordings to measure the excitatory post-synaptic potentials (EPSPs). Under control conditions in physiological saline, electrical stimuli in a paired-pulse paradigm^18 were applied to the Schaffer Collaterals of in vitro hippocampal slices.
(§2) Following terminal anaesthesia using halothane, 400 μm transverse hippocampal slices from 2 week Wistar rats were obtained and left to rest for one hour in a high humidity chamber with oxygenated artificial cerebrospinal fluid (ACSF) (in mM: 124 NaCl, 22 NaHCO3, 10 glucose, 5 KCl, 2 CaCl2, 1.25 MgSO4, 1.25 NaH2PO4) before being submersed in dye solution (4% dye stock solution (in mM: 0.2 mM Di-4-ANEPPS (Molecular Probes, Oregon, USA) in 2.7% ethanol, 0.13% Cremaphor EL), 48% fetal bovine serum and 24% ACSF and 24% ACSF cellulose) for 25 minutes followed by a further one hour rest in the humidity chamber with oxygenated ACSF.
(§3) Electrical stimulation (paired pulse 8-10V, 60 ms interval, 0.1 ms duration) was generated by an isolated stimulator (Digitimer Ltd, UK) via a bipolar electrode (FHC, Maine, USA) and positioned just above the CA3 region. In this way, paired pulses were applied along the Shaffer Collaterals so as to elicit a spreading depolarising wave that formed from the point of stimulation and moved along the pathway towards the CA1 region. A halogen lamp provided the excitatory wavelengths for the dye (through a λ=530±10 nm filter) while the emission was captured on a 2 mm×3 mm CCD sensor (MiCAM01, BrainVision, Tokyo, Japan) through an absorption filter (λ=590 nm). Optical recordings were acquired at a rate of 0.7 ms frame^−1 for 682 frames. 16 optical recordings were averaged for each experimental condition to reduce the effects of dye bleaching and increase the signal-to-noise ratio. Analysis included ΔF/F calculations and a 5×5×3 Gaussian matrix filter (BrainVision Analysis software and Igor Pro 5, Wavemetrics, USA). As indicated above, such optical imaging was combined with standard electrophysiological field potential recordings to measure the excitory post synaptic potentials (EPSPs). […] All statistical comparisons were performed using student t-test of paired samples, n=6; 95% confidence interval.

[2] = test system: transient working neuronal assemblies in in vitro hippocampal slices; test: Optical imaging with voltage sensitive dye Di-4-ANEPPS (ΔF/F) of paired-pulse stimulated hippocampal slices; format: cell-based, rat; conditions: for effect on population activity / prolongation of activation of the neuronal assembly after the second pulse / time for which neurons remain activated / return to resting baseline after peak activation following the second stimulating pulse: optical imaging; for effect on population activity / prolongation of activation of the neuronal assembly after the second pulse: vs control ACSF; for optical ΔF/F peak 1 value vs control / optical ΔF/F peak 2 value vs control: paired t-test n=6; for time from peak to half peak activity, peak 2 (t3−t4), vs control: ΔF/F data; for time for which neurons remain activated / return to resting baseline after peak activation following the second stimulating pulse: morphine 10-100 μM, gabapentin 100-150 μM, thiopental 80-150 μM, propofol 10-50 μM, control returns within 60 ms
Procedure: as §1, §2, §3

SMILES | time from peak to half peak activity, peak 2 (t3−t4), vs control [1] | paired-pulse facilitation in EPSP recordings, treatment vs control [1] | EPSP peak 1 value vs control [1] | EPSP peak 2 value vs control [1] | paired-pulse facilitation in ΔF/F recordings, treatment vs control [2] | effect on population activity / prolongation of activation of the neuronal assembly after the second pulse [2] | optical ΔF/F peak 1 value vs control [2] | optical ΔF/F peak 2 value vs control [2] | time from peak to half peak activity, peak 2 (t3−t4), vs control [2] | time for which neurons remain activated / return to resting baseline after peak activation following the second stimulating pulse [2]
CC(C)c1cccc(C(C)C)c1O [propofol, 2,6-diisopropylphenol] | low statistical difference | did not significantly differ | significantly reduced | significantly reduced | did not significantly change | prolonged activation | did not differ significantly | significant reduction | very highly significant differences | –
NCC1(CC(=O)O)CCCCC1 [gabapentin] | no significant difference | no significant difference | not significantly changed | not significantly changed | – | not substantially altered; also recorded: no such effect | – | significant difference | no significant difference | ≤ 60 ms
CN1CC[C@]23c4c5ccc(O)c4O[C@H]2[C@@H](O)C=C[C@H]3[C@H]1C5 [morphine] | – | – | – | – | – | – | – | – | – | ≤ 60 ms
CCCC(C)C1(CC)C(=O)NC(=S)NC1=O (stereo not shown) [thiopental, 5-ethyl-5-(1-methylbutyl)-2-thiobarbituricacid] | no significant change | abolished | significantly reduced | significantly reduced | abolished | prolonged activation | did not differ significantly | significant reduction | highly significant | up to 500 ms
